The text below walks through data of patent publication US20240166681A1, “3'3' CYCLIC DINUCLEOTIDES CONTAINING ISONUCLEOTIDIC UNITS” (INSTITUTE OF ORGANIC CHEMISTRY AND BIOCHEMISTRY AS CR, V. …, priority 2021, published 2024).

Molecules are shown by their SMILES.

WT STING, sequence (Q86WV6 whole entry H232R): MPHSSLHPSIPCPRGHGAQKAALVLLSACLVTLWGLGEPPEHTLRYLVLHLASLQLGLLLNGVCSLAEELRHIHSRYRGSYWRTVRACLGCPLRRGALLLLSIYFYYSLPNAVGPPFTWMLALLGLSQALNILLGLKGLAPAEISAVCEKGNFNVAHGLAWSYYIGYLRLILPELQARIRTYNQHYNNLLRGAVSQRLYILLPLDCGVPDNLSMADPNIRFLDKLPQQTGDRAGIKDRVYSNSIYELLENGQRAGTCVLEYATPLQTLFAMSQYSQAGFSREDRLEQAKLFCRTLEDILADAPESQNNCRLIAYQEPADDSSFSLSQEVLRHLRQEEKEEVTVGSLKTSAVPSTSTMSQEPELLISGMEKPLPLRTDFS

The target in the assay is WT STING (Homo sapiens, UniProt Q86WV6, H232R). As to the kind of experiment: Digitonin assay using 293T wtSTING-FL reporter cells. Format: cell-based. The conditions noted are these: 293T wtSTING-FL cells, digitonin buffer 30 min, then 5 h, ISRE firefly luciferase reporter. More on the design: host or cells: 293T (ATCC CRL-3216), stably transfected. The source says:
[…] […] (SEQ ID NO:2) containing four interferon-sensitive response elements (ISRE) were synthesized by Sigma Aldrich (Czech Republic, Prague). The oligonucleotides were mixed in equal molar amounts, hybridized, and cleaved by restriction endonucleases HindIII (cat. #.R0104S, NEB, Ipswich, USA) and BglII (cat. #R0144S, NEB, Ipswich, USA). Ultimately, they were ligated into plasmid pGL4.27 (cat. #E6651, Promega, Madison, USA) linearized with the same enzymes. As result the sequence with four ISRE sites was placed upstream of the minimum promoter of firefly luciferase reporter gene.
293T cells (cat. #CRL-3216, ATCC, Manassas, USA) were seeded a day before transfection at density 125,000 cells per cm^2 onto poly-D-lysine (cat. #P6407, Sigma Aldrich, Czech Republic) coated six well plates in antibiotic free DMEM with high glucose (cat. #D5796, Sigma Aldrich, Czech Republic) supplemented with 10% heat inactivated FBS (cat. #S1520, Biowest, Riverside, USA). On the day of transfection, 2.5 μg of the plasmid pUNO1-hSTING-WT (cat. #punol-hstingwt, InvivoGen, San Diego, USA,) encoding human wild type STING (WT STING) was diluted in 125 μL OptiMEM medium (cat. #31985062, ThermoFisher, Waltham, USA) and mixed with 125 μL of the same medium containing 12.5 μL of Lipofectamine 2000 (cat. #11668019, ThermoFisher, Waltham, USA). After 5 minutes incubation at room temperature (RT), 250 μL of the mixture was added dropwise to the cells in one well. Cells were incubated 36 hours at 37° C. with 5% CO2, and then detached with 0.05% Trypsin and 0.22 g/L EDTA (both cat. #L0941, Biowest, Riverside, USA).
Transfected cells were seeded onto poly-D-lysine coated six well plates at density 50,000 cells per 1 cm^2 in DMEM medium with high glucose containing 10% heat inactivated FBS, 30 μg/mL blasticidin (cat. #ant-b1-05, InvivoGen, San Diego, USA), 0.06 mg/ml Penicillin G and 0.1 mg/ml Streptomycin Sulfate (both cat. #. L0018, Biowest, Riverside, USA). The medium was replenished every 3-4 days until visible colonies of cells resistant to blasticidin were formed.
Blasticidin resistant cells stably expressing WT STING were further transfected with […] plasmid following the same procedure as described above. The transfected cells were selected for the resistance to 300 μg/mL hygromycin (cat. #. 10687010, ThermoFisher, Waltham, USA) in DMEM with high glucose containing 10% heat inactivated FBS, 30μg/mL blasticidin, 0.06 mg/ml Penicillin G and 0.1 mg/ml Streptomycin Sulfate. Homogeneous culture of stably double transfected cells was prepared by limiting dilution of cells in 96 well plates and wells with cells were selected that originated from a single cell. These cells were expanded, and expression of WT STING was confirmed by western blot using monoclonal mouse anti STING antibodies (cat. #. MAB7169, 1:1000 dilution; […]. Genomic DNA from the transfected cells was amplified with primers pUNO1_Seq_F ([…]) (SEQ ID NO:3) and pUNO1_Seq_R ([…]) (SEQ ID NO:4) that were complementary to pUNO1 plasmid and the presence of WT STING gene in the transfected cells was confirmed by DNA sequencing.
293T wtSTING-FL cells were seeded at density of 250,000 cells per cm^2 onto 96 well poly-D-lysine coated plates in 100 μl DMEM with high glucose supplemented with 10% heat inactivated FBS. The medium was removed next day and three fold serial dilutions of compounds in Digitonin buffer containing 50 mmol·l^−1 HEPES (cat. #H3375, Sigma Aldrich, Czech Republic) pH 7.0, 100 mmol·l^−1 KCl, 3 mmol·l^−1 MgCl2, 0.1 mmol.·l^−1 DTT (cat. #D0632, Sigma Aldrich, Czech Republic), 85 mmol·l^−1 Sucrose (cat. #S7903, Sigma Aldrich, Czech Republic), 0.2% BSA (cat. #A2153, Sigma Aldrich, Czech Republic), 1 mmol·l^−1 ATP (cat. #A1852, Sigma Aldrich, Czech Republic), 0.1 mmol·l^−1 GTP (cat. #G8877, Sigma Aldrich, Czech Republic), and 10 μg/mL Digitonin A (cat. #D141, Sigma Aldrich, Czech Republic) were added to the cells. […]
As usually defined, the EC50 is the concentration giving half of the maximal effect. A higher EC50 goes with a need for much substance. For `Nc1nc2c(ncn2[C@@H]2CO[C@@H]3COP(=O)(O)O[C@H]4[C@H](n5cnc6c(N)ncnc65)CO[C@@H]4COP(=O)(O)O[C@@H]23)c(=O)[nH]1` [Compound 52, (1S,6R,9R,10S,15R,18R)-9-(2-amino-6-oxo-6,9-dihydro-1H-purin-9-yl)-18-(6-amino-9H-purin-9-yl)-3,12-dihydroxy-2,4,7,11,13,16-hexaoxa-3λ^5,12λ^5-diphosphatricyclo[13.3.0.0^6,10]octadecane-3,12-dione], a half-maximal response (EC50) required 1.35 µM.
The value for `Nc1ncnc2c1ncn2[C@@H]1CO[C@@H]2COP(=O)(O)O[C@H]3C[C@H](n4cnc5c(N)ncnc54)O[C@@H]3COP(=O)(O)O[C@@H]12` [Compound 50, (1S,6R,8R,10S,15R,18R)-8,18-bis(6-amino-9H-purin-9-yl)-3,12-dihydroxy-2,4,7,11,13,16-hexaoxa-3λ^5,12λ^5-diphosphatricyclo[13.3.0.0^6,10]octadecane-3,12-dione] was 0.28 µM; that for `Nc1nc2c(ncn2[C@@H]2O[C@@H]3COP(=O)(O)O[C@H]4[C@H](n5cnc6c(N)ncnc65)CO[C@@H]4COP(=O)(O)O[C@H]3[C@H]2F)c(=O)[nH]1` [Compound 24, (1S,6R,8R,9R,10R,15R,18R)-8-(2-amino-6-oxo-6,9-dihydro-1H-purin-9-yl)-18-(6-amino-9H-purin-9-yl)-9-fluoro-3,12-dihydroxy-2,4,7,11,13,16-hexaoxa-3λ^5,12λ^5-diphosphatricyclo[13.3.0.0^6,10]octadecane-3,12-dione] was 0.03 µM.
For `Nc1nc2c(ncn2[C@@H]2CO[C@@H]3COP(=O)(O)O[C@H]4C[C@H](n5cnc6c(N)ncnc65)O[C@@H]4COP(=O)(O)O[C@@H]23)c(=O)[nH]1` [Compound 53, (1S,6R,8R,10S,15R,18R)-18-(2-amino-6-oxo-6,9-dihydro-1H-purin-9-yl)-8-(6-amino-9H-purin-9-yl)-3,12-dihydroxy-2,4,7,11,13,16-hexaoxa-3λ^5,12λ^5-diphosphatricyclo[13.3.0.0^6,10]octadecane-3,12-dione], the 50% effective concentration (EC50) was 0.28 µM.
Turning to `Nc1nc2c(ncn2[C@@H]2CO[C@@H]3COP(=O)(O)O[C@H]4[C@@H](F)[C@H](n5cnc6c(N)ncnc65)O[C@@H]4COP(=O)(O)O[C@@H]23)c(=O)[nH]1` [Compound 51, (1S,6R,8R,9R,10R,15R,18R)-18-(2-amino-6-oxo-6,9-dihydro-1H-purin-9-yl)-8-(6-amino-9H-purin-9-yl)-9-fluoro-3,12-dihydroxy-2,4,7,11,13,16-hexaoxa-3λ^5,12λ^5-diphosphatricyclo[13.3.0.0^6,10]octadecane-3,12-dione], the EC50 was 0.08 µM.
In turn, `Nc1ncnc2c1ncn2[C@@H]1CO[C@@H]2COP(=O)(S)O[C@H]3[C@@H](F)[C@H](n4cnc5c(N)ncnc54)O[C@@H]3COP(=O)(S)O[C@@H]12` (stereo partly drawn) [Compound 54, (1S,6R,8R,9R,10R,15R,18R)-8,18-bis(6-amino-9H-purin-9-yl)-9-fluoro-3,12-disulfanyl-2,4,7,11,13,16-hexaoxa-3λ^5,12λ^5-diphosphatricyclo[13.3.0.0^6,10]octadecane-3,12-dione] yielded an EC50 of 0.01 µM.
The value for `Nc1ncnc2c1ncn2[C@@H]1CO[C@@H]2COP(=O)(S)O[C@H]3[C@@H](F)[C@H](n4cnc5c(N)ncnc54)O[C@@H]3COP(=O)(S)O[C@@H]12` (stereo partly drawn) [Compound 55, (1S,6R,8R,9R,10R,15R,18R)-8,18-bis(6-amino-9H-purin-9-yl)-9-fluoro-3,12-disulfanyl-2,4,7,11,13,16-hexaoxa-3λ^5,12λ^5-diphosphatricyclo[13.3.0.0^6,10]octadecane-3,12-dione] was 0.01 µM; that for `Nc1ncnc2c1ncn2[C@@H]1CC[C@@H]2COP(=O)(O)O[C@H]3[C@@H](F)[C@H](n4cnc5c(N)ncnc54)O[C@@H]3COP(=O)(O)O[C@H]21` [Compound 34, (1R,6R,8R,9R,10R,15R,18R)-8,18-bis(6-amino-9H-purin-9-yl)-9-fluoro-3,12-dihydroxy-2,4,7,11,13-pentaoxa-3λ^5,12λ^5-diphosphatricyclo[13.3.0.0^6,10]octadecane-3,12-dione] was 0.45 µM; that for `Nc1ncnc2c1ncn2[C@@H]1CO[C@@H]2COP(=O)(O)O[C@H]3[C@@H](F)[C@H](n4cnc5c(N)ncnc54)O[C@@H]3COP(=O)(O)O[C@@H]12` [Compound 28, (1S,6R,8R,9R,10R,15R,18R)-8,18-bis(6-amino-9H-purin-9-yl)-9-fluoro-3,12-dihydroxy-2,4,7,11,13,16-hexaoxa-3λ^5,12λ^5-diphosphatricyclo[13.3.0.0^6,10]octadecane-3,12-dione] was 0.02 µM.
